Test results taken from ChEMBL document CHEMBL2407034, “Discovery of AZD8931, an Equipotent, Reversible Inhibitor of Signaling by EGFR, HER2, and HER3 Receptors” (ACS Med Chem Lett, 2013).
In brackets after ≈: the same amount, converted by molar mass.

How the values were obtained:
KB = assay: Antiproliferative activity against human KB cells; format: functional, cell-based
[1] = AUC in mouse at 50 mg/kg, po; format: ADME, organism-based; design: dose 50 mg/kg, route oral; conditions: plasma
LoVo = assay: Antitumor activity against human LoVo cells xenografted in mouse assessed as tumor growth inhibition at 100 mg/kg, po qd; format: functional; conditions: read-out: TGI
[2] = Lipophilicity, log D of the compound at pH 7.4; format: physicochemical; conditions: buffer
[3] = target: T1, Receptor tyrosine-protein kinase erbB-2 (Homo sapiens, UniProt P04626); assay: Inhibition of human HER2 kinase domain expressed in baculovirus/Sf21 system by ELISA
[4] = target: T1, Receptor tyrosine-protein kinase erbB-2; assay: Inhibition of full-length HER2 phosphorylation transfected in human MCF-7 cl.24 cells after 4 hrs by laser scanning fluorescence microplate cytometry; format: cell-based
[5] = Fraction unbound in rat plasma; format: ADME, cell-free
[6] = Fraction unbound in human plasma; format: ADME, cell-free
Cytochrome P450 2C19 = Cytochrome P450 2C19 (Homo sapiens, UniProt P33261); assay: Inhibition of CYP2C19 (unknown origin); format: ADME
Cytochrome P450 2C9 = Cytochrome P450 2C9 (Homo sapiens, UniProt P11712); assay: Inhibition of CYP2C9 (unknown origin); format: ADME
[7] = Bioavailability in AP-Wistar rat at 5 mg/kg, po and 2 mg/kg, iv; format: ADME, organism-based; conditions: in vivo
[8] = Intrinsic clearance in human hepatocytes assessed per million cells; format: ADME, cell-based, Hepatocyte; conditions: read-out: CLH
[9] = Apparent permeability from apical to basolateral side of human Caco2 cells at 10 uM; format: ADME, cell-based; conditions: Caco-2
[10] = Volume of distribution at steady state in AP-Wistar rat at 5 mg/kg, po and 2 mg/kg, iv; format: ADME, organism-based; conditions: in vivo, read-out: Vdss
[11] = Volume of distribution at steady state in dog at 2 mg/kg, po and 1 mg/kg, iv; format: ADME, organism-based, Canis lupus familiaris; conditions: in vivo, read-out: Vdss
Cytochrome P450 1A2 = target: T2, Cytochrome P450 1A2 (Homo sapiens, UniProt P05177); assay: Inhibition of CYP1A2 (unknown origin); format: ADME
T2 sequence (P05177 whole entry): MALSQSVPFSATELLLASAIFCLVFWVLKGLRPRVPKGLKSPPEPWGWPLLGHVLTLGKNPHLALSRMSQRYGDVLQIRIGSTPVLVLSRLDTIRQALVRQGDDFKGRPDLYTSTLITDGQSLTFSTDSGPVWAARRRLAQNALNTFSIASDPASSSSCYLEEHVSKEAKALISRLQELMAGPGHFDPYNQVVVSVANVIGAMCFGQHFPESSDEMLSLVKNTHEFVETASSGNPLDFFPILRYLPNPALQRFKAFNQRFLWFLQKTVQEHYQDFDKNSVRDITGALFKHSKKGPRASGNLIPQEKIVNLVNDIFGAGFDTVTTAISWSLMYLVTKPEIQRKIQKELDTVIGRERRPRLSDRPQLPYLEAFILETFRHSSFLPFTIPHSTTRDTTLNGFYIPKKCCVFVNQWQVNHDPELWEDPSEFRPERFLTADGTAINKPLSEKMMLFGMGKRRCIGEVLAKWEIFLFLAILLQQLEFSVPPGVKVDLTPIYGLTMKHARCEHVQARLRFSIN

[12] = Bioavailability in dog at 2 mg/kg, po and 1 mg/kg, iv; format: ADME, organism-based, Canis lupus familiaris; conditions: in vivo
[13] = Clearance in AP-Wistar rat at 5 mg/kg, po and 2 mg/kg, iv; format: ADME, organism-based; conditions: in vivo
[14] = Aqueous solubility of the compound in phosphate buffer at pH 6.8; format: physicochemical
[15] = Clearance in dog at 2 mg/kg, po and 1 mg/kg, iv; format: ADME, organism-based, Canis lupus familiaris; conditions: in vivo
Cytochrome P450 2D6 = Cytochrome P450 2D6 (Homo sapiens, UniProt P10635); assay: Inhibition of CYP2D6 (unknown origin); format: ADME
Cytochrome P450 2D6, sequence (P10635 whole entry): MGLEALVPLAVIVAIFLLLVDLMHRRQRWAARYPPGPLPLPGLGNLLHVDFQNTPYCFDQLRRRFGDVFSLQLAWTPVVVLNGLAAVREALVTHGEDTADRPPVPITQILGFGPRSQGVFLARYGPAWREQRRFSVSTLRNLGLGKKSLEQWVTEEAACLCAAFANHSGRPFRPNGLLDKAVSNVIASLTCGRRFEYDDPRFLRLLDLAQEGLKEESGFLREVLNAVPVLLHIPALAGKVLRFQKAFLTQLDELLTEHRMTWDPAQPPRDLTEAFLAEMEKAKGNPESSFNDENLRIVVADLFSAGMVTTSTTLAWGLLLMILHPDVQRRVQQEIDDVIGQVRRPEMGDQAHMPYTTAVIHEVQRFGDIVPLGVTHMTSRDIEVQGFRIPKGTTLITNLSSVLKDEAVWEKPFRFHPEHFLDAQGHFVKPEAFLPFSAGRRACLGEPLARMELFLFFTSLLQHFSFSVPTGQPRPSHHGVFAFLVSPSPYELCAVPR

T1 sequence (P04626 whole entry, the tested form may be a part): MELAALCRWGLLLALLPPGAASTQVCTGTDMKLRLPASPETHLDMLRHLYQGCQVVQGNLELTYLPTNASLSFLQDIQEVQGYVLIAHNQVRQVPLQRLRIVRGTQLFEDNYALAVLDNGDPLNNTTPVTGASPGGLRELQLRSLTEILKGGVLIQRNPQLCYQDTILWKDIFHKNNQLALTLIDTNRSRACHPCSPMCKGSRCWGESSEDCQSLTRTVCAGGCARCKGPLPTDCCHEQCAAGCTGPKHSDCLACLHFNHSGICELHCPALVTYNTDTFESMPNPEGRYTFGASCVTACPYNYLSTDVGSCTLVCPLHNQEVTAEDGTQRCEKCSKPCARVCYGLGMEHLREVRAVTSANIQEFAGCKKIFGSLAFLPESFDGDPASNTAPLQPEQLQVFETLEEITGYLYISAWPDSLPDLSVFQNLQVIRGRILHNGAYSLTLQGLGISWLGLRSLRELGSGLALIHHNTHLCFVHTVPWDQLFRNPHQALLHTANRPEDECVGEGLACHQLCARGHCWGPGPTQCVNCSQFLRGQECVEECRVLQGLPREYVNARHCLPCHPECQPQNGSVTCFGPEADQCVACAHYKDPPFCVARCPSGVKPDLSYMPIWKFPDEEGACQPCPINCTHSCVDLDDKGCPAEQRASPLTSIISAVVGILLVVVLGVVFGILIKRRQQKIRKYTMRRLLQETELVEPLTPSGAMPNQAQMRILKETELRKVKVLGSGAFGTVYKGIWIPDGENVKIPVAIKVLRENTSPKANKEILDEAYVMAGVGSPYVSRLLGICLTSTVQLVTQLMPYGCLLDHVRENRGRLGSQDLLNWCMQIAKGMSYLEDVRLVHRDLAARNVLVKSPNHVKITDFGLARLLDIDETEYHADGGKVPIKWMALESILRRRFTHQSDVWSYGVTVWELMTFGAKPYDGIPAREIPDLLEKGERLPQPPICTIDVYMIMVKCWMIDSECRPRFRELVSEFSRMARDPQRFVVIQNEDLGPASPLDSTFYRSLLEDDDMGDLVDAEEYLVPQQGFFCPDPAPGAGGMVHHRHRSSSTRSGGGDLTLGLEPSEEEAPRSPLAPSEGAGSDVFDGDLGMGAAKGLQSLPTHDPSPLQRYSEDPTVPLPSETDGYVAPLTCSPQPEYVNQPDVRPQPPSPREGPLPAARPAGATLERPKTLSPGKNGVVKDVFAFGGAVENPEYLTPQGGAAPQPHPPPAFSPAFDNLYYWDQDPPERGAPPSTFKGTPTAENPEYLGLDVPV
Cytochrome P450 2C9, sequence (P11712 whole entry): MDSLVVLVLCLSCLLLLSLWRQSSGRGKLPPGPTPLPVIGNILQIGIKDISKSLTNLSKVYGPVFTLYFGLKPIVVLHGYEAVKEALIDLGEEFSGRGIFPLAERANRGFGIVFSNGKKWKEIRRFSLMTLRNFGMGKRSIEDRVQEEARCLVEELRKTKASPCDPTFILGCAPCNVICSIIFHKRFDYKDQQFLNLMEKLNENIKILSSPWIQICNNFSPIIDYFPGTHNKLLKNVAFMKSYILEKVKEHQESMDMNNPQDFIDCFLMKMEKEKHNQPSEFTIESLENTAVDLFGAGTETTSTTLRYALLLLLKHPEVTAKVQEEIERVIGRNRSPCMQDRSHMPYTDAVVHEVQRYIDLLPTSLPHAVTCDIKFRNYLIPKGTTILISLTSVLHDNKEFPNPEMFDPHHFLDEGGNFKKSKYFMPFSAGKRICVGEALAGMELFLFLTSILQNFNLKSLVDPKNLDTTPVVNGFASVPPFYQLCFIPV
Cytochrome P450 2C19, sequence (P33261 whole entry): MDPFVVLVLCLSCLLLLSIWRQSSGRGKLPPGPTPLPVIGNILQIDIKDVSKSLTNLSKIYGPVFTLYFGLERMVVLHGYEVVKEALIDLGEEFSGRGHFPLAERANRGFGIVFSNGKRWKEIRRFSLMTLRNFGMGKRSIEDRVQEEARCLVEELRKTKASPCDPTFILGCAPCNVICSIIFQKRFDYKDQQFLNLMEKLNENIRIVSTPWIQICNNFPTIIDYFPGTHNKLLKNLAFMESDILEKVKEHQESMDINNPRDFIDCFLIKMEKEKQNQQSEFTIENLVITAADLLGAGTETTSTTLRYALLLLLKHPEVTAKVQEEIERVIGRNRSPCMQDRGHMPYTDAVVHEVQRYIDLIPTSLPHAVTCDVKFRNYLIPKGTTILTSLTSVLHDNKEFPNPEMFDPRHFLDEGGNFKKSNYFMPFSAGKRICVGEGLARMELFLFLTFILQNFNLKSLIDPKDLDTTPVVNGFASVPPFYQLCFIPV

## COc1cc2ncnc(Nc3cccc(Cl)c3F)c2cc1OC1CCN(CC(N)=O)CC1
KB
  IC50: 4 nM
[1]
  AUC: 19 µM·h
LoVo
  inhibition in vivo at 100 mg/kg: 36%
[2]
  logD: 3.1

## CCNC(=O)CN1CCC(Oc2cc3c(Nc4cccc(Cl)c4F)ncnc3cc2OC)CC1
[3]
  IC50: 33 nM
[4]
  IC50: 120 nM

## COCCNC(=O)CN1CCC(Oc2cc3c(Nc4cccc(Cl)c4F)ncnc3cc2OC)CC1
[3]
  IC50: 91 nM
[4]
  IC50: 250 nM

## COc1cc2ncnc(Nc3cccc(Cl)c3F)c2cc1OC1CCN(CC(=O)NC(C)C)CC1
[3]
  IC50: 110 nM
[4]
  IC50: 410 nM

## COc1cc2ncnc(Nc3cccc(Cl)c3F)c2cc1OC1CCN(CC(=O)N(C)C)CC1
[3]
  IC50: 220 nM
[4]
  IC50: 670 nM

## CNC(=O)CN1CCC(Oc2cc3c(Nc4ccc(F)c(Cl)c4)ncnc3cc2OC)CC1
[4]
  IC50: 264 nM
[1]
  AUC: 19 µM·h
[5]
  fraction unbound: 0.029
LoVo
  inhibition in vivo at 100 mg/kg: 28%
[6]
  fraction unbound: 0.027
[2]
  logD: 4

## CNC(=O)CN1CCC(Oc2cc3c(Nc4ccc(F)c(Cl)c4F)ncnc3cc2OC)CC1
[4]
  IC50: 89 nM

## CNC(=O)CN1CCC(Oc2cc3c(Nc4cccc(Cl)c4)ncnc3cc2OC)CC1
[4]
  IC50: 360 nM

## CNC(=O)CN1CCC(Oc2cc3c(Nc4cc(Cl)ccc4F)ncnc3cc2OC)CC1
[4]
  IC50: 860 nM

## CNC(=O)CCN1CCC(Oc2cc3c(Nc4cccc(Cl)c4F)ncnc3cc2OC)CC1
[4]
  IC50: 550 nM

## CNC(=O)CN1CC(Oc2cc3c(Nc4cccc(Cl)c4F)ncnc3cc2OC)C1
[4]
  IC50: 1100 nM

## CNC(=O)CN(C)CCOc1cc2c(Nc3cccc(Cl)c3F)ncnc2cc1OC
[4]
  IC50: 1500 nM

## CNC(=O)CN1CCCC(Oc2cc3c(Nc4cccc(Cl)c4F)ncnc3cc2OC)C1 (racemic)
[4]
  IC50: 230 nM

## CNC(=O)CN1CCC(Oc2cc3c(Nc4cccc(Cl)c4F)ncnc3cc2OC)C1 (racemic)
[4]
  IC50: 250 nM

## CNC(=O)CN1CCC(Oc2cc3c(Nc4cccc(Cl)c4F)ncnc3cc2OC)CC1 [SAPITINIB]
Cytochrome P450 2C19
  IC50: > 10 µM
[3]
  IC50: 14 nM
Cytochrome P450 2C9
  IC50: > 10 µM
[4]
  IC50: 60 nM
[7]
  bioavailability: 38%
[8]
  hepatocyte CLint: < 4.5 µL/min/1e6 cells
[9]
  Papp A→B at 10 µM: 15.9 ×10⁻⁶ cm/s
[1]
  AUC: 66 µM·h
[10]
  Vd: 0.8 L/kg
[11]
  Vd: 0.2 L/kg
Cytochrome P450 1A2
  IC50: > 10 µM
[5]
  fraction unbound: 0.072
LoVo
  inhibition in vivo at 100 mg/kg: 76%
[6]
  fraction unbound: 0.067
[12]
  bioavailability: 89%
[2]
  logD: 3.2
[13]
  clearance: 13 mL/min/kg
[14]
  solubility: 17 µM (≈ 8.06 µg/mL)
[15]
  clearance: 1.1 mL/min/kg
Cytochrome P450 2D6
  IC50: > 10 µM
